The values that follow come from PMC8769072, “Proteome‐scale mapping of binding sites in the unstructured regions of the human proteome” (Molecular Systems Biology, 2022).

One may read the IC50 as the concentration needed to halve the response being measured. High values mean weaker potency, low ones greater potency. As usually defined, the Kd is the concentration at which binding is half-saturated. A high value points to a looser complex. Broadly, the Ki is a measure of affinity in units of concentration, obtained from inhibition or displacement. Low values mean tighter binding, high ones weaker binding.

One experiment addresses T1, CLTC (Homo sapiens, UniProt Q00610).
T1 construct: Q00610; CLTC; Clathrin propeller; 364; pETM33; Genescript; 6-His-GST; made in house; host or cells: Escherichia coli BL21(DE3) gold (stated for the bait preparation)
T1 sequence (Q00610 1-364): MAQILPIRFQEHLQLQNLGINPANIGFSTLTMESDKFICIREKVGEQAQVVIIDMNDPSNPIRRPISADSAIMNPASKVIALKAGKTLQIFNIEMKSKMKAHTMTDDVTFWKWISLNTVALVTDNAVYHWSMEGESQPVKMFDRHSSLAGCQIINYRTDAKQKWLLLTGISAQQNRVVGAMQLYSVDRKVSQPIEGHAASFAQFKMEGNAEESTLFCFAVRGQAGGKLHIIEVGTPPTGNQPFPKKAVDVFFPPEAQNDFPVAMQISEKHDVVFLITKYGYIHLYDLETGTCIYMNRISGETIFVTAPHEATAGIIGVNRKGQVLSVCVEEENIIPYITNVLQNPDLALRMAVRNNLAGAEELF
The experiment can be described thus: FP competition, CLTC. The experiment is classed as binding. To be noted: competitive FP assay.

The target in experiment [1] is T2, KPNA4 ARM (Homo sapiens, UniProt O00629).
T2 construct: O00629; KPNA4; Arm; 68; 487; pETM33/pETM41; Genescript; made in house; host or cells: bacteria (E. coli BL21(DE3) gold is named only for the phage-selection preparations)
Nature of the experiment: FP saturation (direct binding of FITC probes), KPNA4 ARM.

A further experiment concerns the target T3, KPNB1 HEAT (Homo sapiens, UniProt Q14974).
T3 construct: Q14974; KPNB1; HEAT; 485; pETM41; Genescript; 6-His-MBP (from vector pETM41) (cleaved yes); made in house; host or cells: bacteria (E. coli BL21(DE3) gold is named only for the phage-selection preparations)
Nature of the experiment: FP saturation (direct binding of FITC probe), KPNB1 HEAT. To be noted: direct binding of FITC-labeled probe, 10 nM in master mix, 50 mM KPO4 pH 7.5.

The next experiment has as its target T4, TLN1 PTB (Homo sapiens, UniProt Q9Y490).
T4 construct: Q9Y490; TLN1; PTB; 309; pHH0103; Sidhu Lab (PMID: 33438817); made in house; host or cells: bacteria (E. coli BL21(DE3) gold is named only for the phage-selection preparations)
Nature of the experiment: FP saturation (direct binding of FITC probe), TLN1 PTB. To be noted: Fig 3C; direct binding of FITC-labeled probe.

The target in experiment [2] is T5, SFN 14-3-3 (Homo sapiens, UniProt P31947).
T5 sequence (P31947 1-236): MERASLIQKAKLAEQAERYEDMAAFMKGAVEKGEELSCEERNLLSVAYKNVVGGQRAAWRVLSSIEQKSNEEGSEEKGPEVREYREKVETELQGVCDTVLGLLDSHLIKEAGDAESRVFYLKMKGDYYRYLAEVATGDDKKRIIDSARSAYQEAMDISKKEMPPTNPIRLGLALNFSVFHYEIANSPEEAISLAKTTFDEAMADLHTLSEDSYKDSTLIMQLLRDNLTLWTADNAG
Nature of the experiment: FP saturation (direct binding of FITC probe), SFN 14-3-3. Also noted: P31947; SFN; 14-3-3; 236; pHH0103; Sidhu Lab (PMID: 33438817); made in house; host or cells: bacteria (E. coli BL21(DE3) gold is named only for the phage-selection preparations). To be noted: direct binding of FITC-labeled phospho-RAF1 probe.

Experiment [3] deals with T5, SFN 14-3-3. Nature of the experiment: FP competition, SFN 14-3-3.
The target in experiment [4] is T2, KPNA4 ARM. The experiment can be described thus: FP competition, KPNA4 ARM major pocket (FITC-Myc probe). The experiment is classed as binding. From the text:
Like other importins, KPNA4 has two distinct NLS‐binding pockets on the surface of an armadillo (ARM) repeat fold (major pocket, ARM 2–4; minor pocket, ARM 6–8; Fig 5B) (Smith et al, [2018]). Bipartite NLSs are usually 17–19 amino acids long and engage both pockets. Monopartite NLSs are short basic stretches, divided into five classes (Kosugi et al, [2009]): class I KR[KR]R or K[KR]RK, class II [PR]xxKR[^DE][KR] (where ^ indicates “not”), class III KRx[WFY]xxAF, class IV [RP]xxKR[KR][^DE], and class V LGKR[KR][WFY]. The class I and class II motifs preferentially interact with the major pocket (Kosugi et al, [2009]). In contrast, class III and class IV NLSs preferentially bind to the minor pocket. Using KPNA4 as a bait against the HD2 P8 library we identified 33 peptides found in 32 proteins. Of the 26 proteins for which information was available, 22 proteins were annotated as having nuclear or nucleolar localization in the UniProt database. To gain additional information we combined the data generated for KPNA4 by screening against the complete P8 HD2 library, with the results generated using two relevant sublibraries (the cytoplasmic and nuclear, and nuclear sublibraries) resulting in a set of 92 peptides containing NLS‐like sequences found in 76 proteins. Using these peptides we could generate consensus motifs that matched four of the previously reported NLS classes (Fig 5A; class I‐IV). […] Three peptides bound only to the major pocket. Eight peptides with class III motif and one KRxH‐containing peptide only bound to the minor pocket. Five peptides outcompeted both probe peptides, which may be explained by the amino acid sequence matching both class II and class III motifs (e.g., 1135‐ PSPKRKL ‐1139 in ZNF532; Fig 5), and possibly by cross specificity of the two binding pockets.

A further experiment deals with HEK293 cells. The experiment can be described thus: GFP-based NLS sensor (tri-GFP) cellular localization. The experiment is classed as cell-based, human. To be noted: HEK293 cells transiently transfected, fixed 36 h after transfection, epifluorescence microscopy, DAPI; n = 3 independent experiments. An excerpt:
For the cell‐based NLS experiment, a pEGFP‐C1 vector was modified to contain two additional eGFP genes spaced by a linker region on the 3′ end of the vector's multiple cloning site (Appendix Fig S8). The modified vector is here called a “tri‐GFP vector”. DNA strands for tandem peptides to be tested for NLS function were constructed by PCR using overlapping primers that coded for the peptide sequences and also contained overlapping regions for the MCS in the tri‐GFP vector. The PCR products were then cloned into the tri‐GFP vector using Gibson Assembly® (New England Biolabs) following the manufacturer's recommendations. Obtained clones were verified by Sanger sequencing.
HEK293 cells were obtained from Sigma (Cat. 85120602) and cultured using DMEM with GlutaMAX™ Supplement (Gibco™) supplemented with 10% FBS (Gibco™) and Non‐Essential Amino Acids Solution (NEAA, Gibco™). Cultures were maintained at 37°C with 5% CO2 in humidified chambers and were routinely checked for mycoplasma contamination. For NLS experiments, cells were transfected using FuGENE® HD (Promega) according to manufacturer's instructions and using highly purified DNA samples. • Cells were then grown in eight‐well chamber slides. […]

The next experiment deals with T6, MDM2 SWIB (Homo sapiens, UniProt Q00987).
T6 construct: Q00987; MDM2; SWIB; 17; 125; pETM33; Genescript; His-GST (cleaved yes); made in house; host or cells: bacteria (E. coli BL21(DE3) gold is named only for the phage-selection preparations)
The experiment can be described thus: FP competition, MDM2 SWIB. The experiment is classed as binding.

Where a SMILES comes first, the peptide text is derived from it. Where no end group is shown, it is not given here. [ ]: non-standard residue; d: D form. The star is where a group is joined. FITC = O=C1OC2(c3ccc(O)cc3Oc3cc(O)ccc32)c2ccc(NC(=S)*)cc21; pT = C[C@@H](OP(=O)(O)O)[C@H](N)C(=O)O; pS = N[C@@H](COP(=O)(O)O)C(=O)O

On CLTC, `CC[C@H](C)[C@H](NC(=O)[C@H](CC(C)C)NC(=O)[C@@H]1CCCN1C(=O)[C@H](CC(C)C)NC(=O)[C@H](CC(=O)O)NC(=O)[C@@H](NC(=O)[C@H](CC(C)C)NC(C)=O)[C@@H](C)CC)C(=O)N[C@@H](CC(=O)O)C(=O)N[C@@H](Cc1ccccc1)C(=O)N[C@@H](CS)C(=O)N[C@@H](CC(=O)O)C(=O)N[C@H](C(=O)N1CCC[C@H]1C(=O)N[C@@H](CCC(=O)O)C(=O)N[C@@H](C)C(=O)N[C@@H](Cc1c[nH]cn1)C(=O)N[C@@H](Cc1ccc(O)cc1)C(=O)O)[C@@H](C)OP(=O)(O)O` [GTSE1 pT] (Ac-LIDLPLIDFCD[pT]PEAHY-OH) showed an IC50 of 87 µM.

At KPNA4 ARM [1] (Appendix Fig S7, saturation curves of FITC-labeled probes with KPNA4 ARM), `CC[C@H](C)[C@H](NC(=O)[C@H](C)NC(=O)[C@H](CCCNC(=N)N)NC(=O)CNC(=O)[C@@H](NC(=O)[C@H](CCCNC(=N)N)NC(=O)CNC(=O)[C@H](CCC(=O)O)NC(=O)[C@H](CCSC)NC(=O)[C@H](CCSC)NC(=O)[C@H](CC(=O)O)NC(=O)[C@H](Cc1ccc(O)cc1)NC(=O)[C@@H](NC(=O)[C@H](CCCNC(=N)N)NC(=O)[C@H](CCCCN)NC(=O)[C@@H]1CCCN1C(=S)Nc1ccc2c(c1)C(=O)OC21c2ccc(O)cc2Oc2cc(O)ccc21)[C@@H](C)O)C(C)C)C(=O)O` [NCOR2 FITC] ({FITC}-PKRTYDMMEGRVGRAI-OH) gave a Kd of 0.228 ± 0.011 µM.

Consider `CC(C)[C@H](NC(=O)[C@H](Cc1ccccc1)NC(=O)[C@@H](NC(=O)[C@H](C)NC(=O)[C@@H](NC(=S)Nc1ccc2c(c1)C(=O)OC21c2ccc(O)cc2Oc2cc(O)ccc21)C(C)C)[C@@H](C)O)C(=O)N[C@@H](Cc1ccccc1)C(=O)NCC(=O)N[C@@H](CCC(N)=O)C(=O)N[C@@H](CO)C(=O)N[C@@H](CO)C(N)=O` [NUP153_FITC] ({FITC}-VATFVFGQSS-NH2), for which the affinity at KPNB1 HEAT, expressed as Kd, was 106 µM.

On TLN1 PTB, `CC(C)C[C@H](NC(=O)[C@@H]1CCCN1C(=O)[C@H](CO)NC(=O)[C@H](Cc1ccc(O)cc1)NC(=O)[C@@H](NC(=O)[C@H](Cc1c[nH]c2ccccc12)NC(=O)[C@H](CO)NC(=O)[C@H](CCCNC(=N)N)NC(=O)[C@H](CCC(=O)O)NC(=O)[C@H](CC(=O)O)NC(=O)[C@@H](NC(=O)[C@@H]1CCCN1C(=O)[C@H](Cc1ccccc1)NC(=S)Nc1ccc2c(c1)C(=O)OC21c2ccc(O)cc2Oc2cc(O)ccc21)[C@@H](C)O)C(C)C)C(=O)N[C@@H](Cc1c[nH]cn1)C(=O)N[C@@H](Cc1ccc(O)cc1)C(=O)N[C@@H](CO)C(N)=O` [PIP5K1C_FITC] ({FITC}-FPTDERSWVYSPLHYS-NH2) returned a Kd of 0.15 ± 0.04 µM.

`CC(C)[C@H](NC(=O)[C@H](CC(N)=O)NC(=O)[C@@H]1CCCN1C(=O)[C@@H](NC(=O)[C@H](COP(=O)(O)O)NC(=O)[C@@H](NC(=O)[C@H](CO)NC(=O)[C@H](CCCNC(=N)N)NC(=O)[C@H](CCC(N)=O)NC(=S)Nc1ccc2c(c1)C(=O)OC21c2ccc(O)cc2Oc2cc(O)ccc21)[C@@H](C)O)[C@@H](C)O)C(=O)N[C@@H](Cc1c[nH]cn1)C(N)=O` [RAF_FITC] ({FITC}-QRST[pS]TPNVH-NH2): the Kd at SFN 14-3-3 [2] was found to be 524 µM.

Ac-LIDLPLIDFCDTPEAHY [GTSE1]: at CLTC, the IC50 was determined as 97 µM.

Ac-NEPTTPSWLADIPPWVP-NH2 [MAP1A] showed an IC50 at SFN 14-3-3 [3] of 1970 µM.

Take Ac-YKCKRQRQDQTLELVGL-NH2 [NKX2-5 Wt]: the Ki on KPNA4 ARM [4] worked out at 6.8 µM. Also, in the experiment with HEK293 cells, the “NLS function: localization of the GFP-based NLS sensor fused to the peptide” value is on record as “nuclear localization”.

Ac-YKCRRQRQDQTLELVGL-NH2 [NKX2-5 K194R] showed an IC50 at KPNA4 ARM [4] (FP competition with FITC-Myc320-328 probe for the major pocket, 50 mM KPO4 pH 7.5, n = 3 technical replicates) of 98 µM. The “loss of affinity of KPNA4 binding, mutant versus wild-type” value at KPNA4 ARM [4] (FP competition with FITC-Myc probe, K194R versus wild-type) is given as 10 fold. Further, the “NLS function: localization of the GFP-based NLS sensor fused to the peptide” value with HEK293 cells was “cytoplasmic localization”.

Ac-YVSGNLIDLCGNQGLP [MITF Y265C] yielded an IC50 at CLTC of 220 µM.

At CLTC, Ac-YVSGNLIDLYGNQGLP [MITF] returned an IC50 of 150 µM.

Compound THFAELWGHLDHTMFF [RNF115] yielded an IC50 at MDM2 SWIB of 9 µM. In addition, the inhibition constant (Ki) at MDM2 SWIB (Fig 3C, FP competition with FITC-p53 probe, triplicates) came to 0.174 µM.

For the compound TPEDDRSFQTVWATVF [KIAA1671], on MDM2 SWIB, the IC50 is 73 µM. This counts as double-digit micromolar.

Take “{FITC}-PAAKRVKLD [Myc, FITC-labeled Myc 320-328 probe for the KPNA4 major pocket]”: the Kd on KPNA4 ARM [1] (direct binding of FITC-labeled probe, saturation with KPNA4 ARM) was 0.03 µM.
